Assay type in all cases: cell-based
In assay [1] the test system is Streptococcus sobrinus. Put plainly: Recovery from no-growth wells on MS agar: bactericidal or bacteriostatic. Here is the method:
(§1) Aliquots of 10 μl of the broth in the well, which no bacterial growth was observed were inoculated onto Mitis Salivarius Agar (MS medium; manufactured by Difco) plates, respectively, and anaerobically incubated at a temperature of 37° C. for 48 hours. The recovery of the inoculated bacteria was calculated to estimate which the mechanism of growth inhibition was bactericidal or bacteriostatic.

Assay [2] concerns Streptococcus mutans. The description is as above. As to the method:
as §1

Assay [3] has as its system Streptococcus sobrinus. Put plainly: Susceptibility test to antibiotics, microbroth dilution method (MIC). As to the method:
(§2) The susceptibility test was carried out in accordance with microbroth dilution method.
(§3) The above-described antibiotics were dissolved in an appropriate solution, respectively, and the respective antibiotic solutions were divided into serial two-fold dilutions in a 96-well microtiter plates containing BHI broth. The bacteria were precultured in BHI broth, respectively, and inoculated into the wells containing the antibiotic solution to make a final concentration of the bacteria to be 1×10^4 cells/well, respectively. The plates were anaerobically incubated at a temperature of 37° C. for 48 hours. After mixing the broth in each well by the use of a pipette, the absorbance at 550 nm in each well was measured with a microplate reader (manufactured by Corona Electric Co., Ibaraki, Japan), to determine bacterial growth. The antibiotic concentration at which no bacterial growth was observed was defined as the minimal inhibitory concentration (MIC).
On the technique in general: Broth dilution looks for growth in wells or tubes with falling amounts of substance.

The subject of assay [4] is Streptococcus mutans. The description is as above. Conditions: for susceptibilities of Streptococcus mutans relative to those of Streptococcus sobrinus: from MICs of Table 2; for difference between Streptococcus mutans and Streptococcus sobrinus in their susceptibilities: in words, from MICs of Tables 2 and 3. Here is the method:
as §2, §3

The mark [5] stands for this setting: Streptococcus sobrinus strains of Table 3.
Where [6] appears, read: Streptococcus sobrinus, strains of Table 2.
Setting [7] is: Streptococcus mutans strains of Table 3.
Where [8] appears, read: Streptococcus mutans, strains of Table 2.
Setting [9] is: Streptococcus sobrinus, Streptococcus sobrinus 0MZ176 (serotype d), read-out: MIC.
Setting [10] is: Streptococcus sobrinus, Streptococcus sobrinus B-13 (serotype d), read-out: MIC.
Setting [11] is: Streptococcus sobrinus, Streptococcus sobrinus NIDR6715, serotype g, read-out: MIC.
Setting [12] is: Streptococcus sobrinus, Streptococcus sobrinus NUM-Ssd1, serotype d, read-out: MIC.
[13] abbreviates: Streptococcus sobrinus, Streptococcus sobrinus NUM-Ssd2, serotype d, read-out: MIC.
Setting [14] is: Streptococcus sobrinus, Streptococcus sobrinus OMZ65, serotype g, read-out: MIC.
[15] abbreviates: Streptococcus sobrinus, strains of Table 2, read-out: MIC to Streptococcus sobrinus.
The mark [16] stands for this setting: Streptococcus mutans, Streptococcus mutans 10449 (serotype c), read-out: MIC.
Setting [17] is: Streptococcus mutans, Streptococcus mutans Ingbritt, serotype c, read-out: MIC.
[18] abbreviates: Streptococcus mutans, Streptococcus mutans JC2 (serotype c), read-out: MIC.
Setting [19] is: Streptococcus mutans, Streptococcus mutans LM7, serotype e, read-out: MIC.
[20] abbreviates: Streptococcus mutans, Streptococcus mutans NUM-Sme1, serotype e, read-out: MIC.
[21] abbreviates: Streptococcus mutans, Streptococcus mutans NUM-Smf1, serotype f, read-out: MIC.
Where [22] appears, read: Streptococcus mutans, Streptococcus mutans OMZ175, serotype f, read-out: MIC.
[23] abbreviates: Streptococcus mutans, Streptococcus mutans PS14, serotype c, read-out: MIC.
Where [24] appears, read: Streptococcus mutans, strains of Table 2, read-out: MIC to Streptococcus mutans.
Setting [25] is: Streptococcus mutans, strains of serotype f of Streptococcus mutans, summary of Table 3, read-out: MIC.
Where [26] appears, read: Streptococcus mutans, strains of serotypes c and e of Streptococcus mutans, summary of Table 3, read-out: MIC.
Setting [27] is: Streptococcus mutans 10449 (serotype c).

In brackets after ≈: the same amount, converted by molar mass. Like-named read-outs stand apart in the source and are kept apart here.

As usually defined, the MIC is the lowest concentration found to suppress growth. Turning to `C[C@H]1[C@H](NC(=O)/C(=N\OC(C)(C)C(=O)O)c2csc(N)n2)C(=O)N1S(=O)(=O)O` [Aztreonam], the “mode of action (bactericidal or bacteriostatic)” value in the assay on Streptococcus sobrinus [1] (setting [5]), in the assay with Streptococcus sobrinus [1] (setting [6]), in the assay with Streptococcus mutans [2] (setting [7]) and in the assay on Streptococcus mutans [2] (setting [8]) was “bactericidal” throughout. For the same compound, the minimum inhibitory concentration (MIC) in the assay with Streptococcus sobrinus [3] (setting [9]), in the assay on Streptococcus sobrinus [3] (setting [10]), in the assay with Streptococcus sobrinus [3] (setting [11]), in the assay on Streptococcus sobrinus [3] (setting [12]), with Streptococcus sobrinus [3] (setting [13]) and in the assay on Streptococcus sobrinus [3] (setting [14]) was 2000 µg/mL (≈ 4590 µM) throughout. Further, the MIC turned out to be 2000 µg/mL (≈ 4590 µM) in the assay with Streptococcus sobrinus [3] (setting [15]); 125 µg/mL (≈ 287 µM) in the assay on Streptococcus mutans [4] (setting [16]); 125 µg/mL (≈ 287 µM) in the assay on Streptococcus mutans [4] (setting [17]); 125 µg/mL (≈ 287 µM) in the assay with Streptococcus mutans [4] (setting [18]); 125 µg/mL (≈ 287 µM) in the assay on Streptococcus mutans [4] (setting [19]); 125 µg/mL (≈ 287 µM) in the assay with Streptococcus mutans [4] (setting [20]). Besides, the MIC with Streptococcus mutans [4] (setting [21]) was determined as 250 µg/mL (≈ 574 µM); in the assay with Streptococcus mutans [4] (setting [22]), 250 µg/mL (≈ 574 µM); with Streptococcus mutans [4] (setting [23]), 125 µg/mL (≈ 287 µM); with Streptococcus mutans [4] (setting [24]) it was 125 µg/mL (≈ 287 µM); with Streptococcus mutans [4] (setting [25]), 250 µg/mL (≈ 574 µM); in the assay with Streptococcus mutans [4] (setting [26]) it was 125 µg/mL (≈ 287 µM). The “susceptibilities of Streptococcus mutans relative to those of Streptococcus sobrinus” value with Streptococcus mutans [4] worked out at 16 fold.
As to `Cc1nnc(SCC2=C(C(=O)O)N3C(=O)[C@@H](NC(=O)Cn4cnnn4)[C@H]3SC2)s1` [Cefazoline], the MIC in the assay with Streptococcus sobrinus [3] (setting [9]) worked out at 0.25 µg/mL (≈ 0.55 µM); in the assay on Streptococcus sobrinus [3] (setting [10]), 0.5 µg/mL (≈ 1.1 µM); with Streptococcus mutans [4] (setting [16]), 0.25 µg/mL (≈ 0.55 µM); in the assay on Streptococcus mutans [4] (setting [18]), 0.25 µg/mL (≈ 0.55 µM). Further, in the assay on Streptococcus mutans [4], the “difference between Streptococcus mutans and Streptococcus sobrinus in their susceptibilities” value is listed as “no significant difference”.
On to `O=C(Cc1cccs1)N[C@@H]1C(=O)N2C(C(=O)[O-])=C(C[n+]3ccccc3)CS[C@H]12` [Cephaloridine], for which the MIC against Streptococcus sobrinus [3] (Streptococcus sobrinus), against Streptococcus sobrinus [3] (Streptococcus sobrinus B-13 (serotype d)), in the assay with Streptococcus mutans [4] (Streptococcus mutans) and in the assay with Streptococcus mutans [4] (setting [27]) was 0.025 µg/mL (≈ 0.0602 µM) each time. In the assay with Streptococcus mutans [4], the “difference between Streptococcus mutans and Streptococcus sobrinus in their susceptibilities” value is recorded as “no significant difference”.
On to `CC1=C(C(=O)O)N2C(=O)[C@@H](NC(=O)[C@H](N)c3ccccc3)[C@H]2SC1` [Cephalexin], for which the MIC in the assay with Streptococcus sobrinus [3] (setting [9]), with Streptococcus sobrinus [3] (setting [10]), in the assay on Streptococcus mutans [4] (setting [16]) and in the assay with Streptococcus mutans [4] (setting [18]) was 1.25 µg/mL (≈ 3.6 µM) throughout. Besides, the “difference between Streptococcus mutans and Streptococcus sobrinus in their susceptibilities” value with Streptococcus mutans [4] is “no significant difference”.
Take `C[C@@H](O)[C@H]1C(=O)N2C(C(=O)O)=C(SCCN=CN)C[C@H]12` [Imipenem]: the MIC came to 0.031 µg/mL (≈ 0.104 µM) in the assay with Streptococcus sobrinus [3] (setting [9]), 0.016 µg/mL (≈ 0.0534 µM) with Streptococcus sobrinus [3] (setting [10]), 0.125 µg/mL (≈ 0.418 µM) in the assay on Streptococcus mutans [4] (Streptococcus mutans) and 0.125 µg/mL (≈ 0.418 µM) in the assay on Streptococcus mutans [4] (setting [27]).
Regarding `NC(=O)OC[C@@H]1[C@H](NC(=O)/C(=N\OCC(=O)O)c2csc(N)n2)C(=O)N1S(=O)(=O)O` [Carumonam], the “mode of action (bactericidal or bacteriostatic)” value in the assay on Streptococcus sobrinus [1] (setting [5]), with Streptococcus sobrinus [1] (setting [6]), in the assay with Streptococcus mutans [2] (setting [7]) and in the assay on Streptococcus mutans [2] (setting [8]) was “bactericidal” in each case. The MIC in the assay with Streptococcus sobrinus [3] (setting [9]) came to 2000 µg/mL (≈ 4290 µM); with Streptococcus sobrinus [3] (setting [10]), 2000 µg/mL (≈ 4290 µM); in the assay with Streptococcus sobrinus [3] (setting [11]), 2000 µg/mL (≈ 4290 µM); in the assay with Streptococcus sobrinus [3] (setting [12]), 2000 µg/mL (≈ 4290 µM); with Streptococcus sobrinus [3] (setting [13]), 2000 µg/mL (≈ 4290 µM); with Streptococcus sobrinus [3] (setting [14]), 1000 µg/mL (≈ 2140 µM). In addition, the MIC in the assay on Streptococcus sobrinus [3] (setting [15]) came out at 2000 µg/mL (≈ 4290 µM); with Streptococcus mutans [4] (setting [16]) it was 125 µg/mL (≈ 268 µM); with Streptococcus mutans [4] (setting [17]), 125 µg/mL (≈ 268 µM); with Streptococcus mutans [4] (setting [18]) it was 125 µg/mL (≈ 268 µM); in the assay on Streptococcus mutans [4] (setting [19]), 125 µg/mL (≈ 268 µM); in the assay on Streptococcus mutans [4] (setting [20]), 125 µg/mL (≈ 268 µM). Also, the MIC in the assay with Streptococcus mutans [4] (setting [21]) was 250 µg/mL (≈ 536 µM); in the assay on Streptococcus mutans [4] (setting [22]), 250 µg/mL (≈ 536 µM); in the assay with Streptococcus mutans [4] (setting [23]), 125 µg/mL (≈ 268 µM); in the assay on Streptococcus mutans [4] (setting [24]) it was 125 µg/mL (≈ 268 µM); in the assay on Streptococcus mutans [4] (setting [25]) it was 250 µg/mL (≈ 536 µM); in the assay with Streptococcus mutans [4] (setting [26]) it was 125 µg/mL (≈ 268 µM). The “susceptibilities of Streptococcus mutans relative to those of Streptococcus sobrinus” value in the assay on Streptococcus mutans [4] is on record as 16 fold.
In the case of `CO[C@@]1(NC(=O)Cc2cccs2)C(=O)N2C(C(=O)O)=C(COC(N)=O)CS[C@@H]21` [Cefoxitin], the “susceptibility of OMZ176 strain relative to the other bacterial strains” value in the assay with Streptococcus sobrinus [3] (Streptococcus sobrinus OMZ176 vs other strains of Table 2) is on record as “approximately 4 times”. Moreover, the minimum inhibitory concentration (MIC) in the assay on Streptococcus sobrinus [3] (setting [9]) worked out at 12.5 µg/mL (≈ 29.2 µM); in the assay with Streptococcus sobrinus [3] (setting [10]) it was 3.13 µg/mL (≈ 7.32 µM); in the assay on Streptococcus mutans [4] (setting [16]), 3.13 µg/mL (≈ 7.32 µM); with Streptococcus mutans [4] (setting [18]), 3.13 µg/mL (≈ 7.32 µM). Further, the “difference between Streptococcus mutans and Streptococcus sobrinus in their susceptibilities” value in the assay on Streptococcus mutans [4] is recorded as “no significant difference”.
Regarding `CC1(C)S[C@@H]2[C@H](NC(=O)Cc3ccccc3)C(=O)N2[C@H]1C(=O)O` [Benzylpenicillin], the minimal inhibitory concentration (MIC) in the assay with Streptococcus sobrinus [3] (setting [9]) came to 0.05 µg/mL (≈ 0.15 µM); in the assay with Streptococcus sobrinus [3] (setting [10]) it was 0.05 µg/mL (≈ 0.15 µM); in the assay on Streptococcus mutans [4] (setting [16]), 0.1 µg/mL (≈ 0.299 µM); in the assay on Streptococcus mutans [4] (setting [18]) it was 0.1 µg/mL (≈ 0.299 µM). In addition, in the assay on Streptococcus sobrinus [3] (from MICs of Table 2), the “susceptibilities of Streptococcus sobrinus relative to those of Streptococcus mutans” value was “twice as high”.
In the case of `Cc1onc(-c2ccccc2Cl)c1C(=O)N[C@@H]1C(=O)N2[C@@H]1SC(C)(C)[C@@H]2C(=O)O` [Cloxacillin], the MIC with Streptococcus sobrinus [3] (setting [9]) came to 1.25 µg/mL (≈ 2.87 µM); in the assay on Streptococcus sobrinus [3] (setting [10]), 1.25 µg/mL (≈ 2.87 µM); with Streptococcus mutans [4] (setting [16]), 0.63 µg/mL (≈ 1.45 µM); in the assay on Streptococcus mutans [4] (setting [18]), 0.63 µg/mL (≈ 1.45 µM). Also, the “susceptibilities of Streptococcus mutans relative to those of Streptococcus sobrinus” value in the assay with Streptococcus mutans [4] is on record as “twice as high”.
